Measured values taken from the NIST ThermoML archive (doi:10.1016/j.jct.2017.06.013).
Numbers after ± are expanded uncertainties.

Experiment: xn = mol fraction of the nth substance listed
Conditions: Liquid, Vibrating tube method

CC(C)OC(C)C [diisopropyl ether] + CCCCCCO
mass density [kg/m3]
Conditions | x1 = 0.1524 | x1 = 0.3196 | x1 = 0.4906 | x1 = 0.6974 | x1 = 0.8457
333.15 K, 140000 kPa | – | – | 831.4 ± 1.2 | 817.4 ± 1.2 | 807 ± 1.3
353.15 K, 100 kPa | 759.2 ± 0.7 | 741.7 ± 0.7 | 722.5 ± 0.7 | 698 ± 0.7 | 679.1 ± 0.7
353.15 K, 500 kPa | 759.5 ± 0.7 | 742.1 ± 0.7 | 723 ± 0.7 | 698.5 ± 0.7 | 679.8 ± 0.7
353.15 K, 1000 kPa | 760 ± 0.7 | 742.7 ± 0.7 | 723.6 ± 0.7 | 699.3 ± 0.7 | 680.7 ± 0.7
353.15 K, 2000 kPa | 761 ± 0.7 | 743.8 ± 0.7 | 724.9 ± 0.7 | 700.8 ± 0.7 | 682.5 ± 0.7
353.15 K, 5000 kPa | 764 ± 0.7 | 747.1 ± 0.7 | 728.8 ± 0.7 | 705.4 ± 0.7 | 687.6 ± 0.7
353.15 K, 10000 kPa | 768.7 ± 0.7 | 752.4 ± 0.7 | 734.8 ± 0.7 | 712.3 ± 0.8 | 695.5 ± 0.8
353.15 K, 15000 kPa | 773.1 ± 0.8 | 757.3 ± 0.8 | 740.2 ± 0.8 | 718.7 ± 0.8 | 702.5 ± 0.8
353.15 K, 20000 kPa | 777.3 ± 0.8 | 761.9 ± 0.8 | 745.3 ± 0.8 | 724.5 ± 0.8 | 708.9 ± 0.8
353.15 K, 30000 kPa | 785 ± 0.8 | 770.4 ± 0.8 | 754.6 ± 0.8 | 735 ± 0.8 | 720.4 ± 0.8
353.15 K, 40000 kPa | 792 ± 0.8 | 778 ± 0.8 | 762.9 ± 0.9 | 744.3 ± 0.9 | 730.4 ± 0.9
353.15 K, 50000 kPa | 798.5 ± 0.9 | 785 ± 0.9 | 770.5 ± 0.9 | 752.6 ± 0.9 | 739.4 ± 0.9
353.15 K, 60000 kPa | 804.6 ± 0.9 | 791.6 ± 0.9 | 777.6 ± 0.9 | 760.6 ± 1 | 747.7 ± 1
353.15 K, 70000 kPa | 810.3 ± 0.9 | 797.7 ± 0.9 | 784.2 ± 1 | 767.6 ± 1 | 755.2 ± 1
353.15 K, 80000 kPa | 815.7 ± 1 | 803.3 ± 1 | 790.1 ± 1 | 774.1 ± 1 | 762.1 ± 1.1
353.15 K, 90000 kPa | 820.8 ± 1 | 808.9 ± 1 | 796.1 ± 1.1 | 780.4 ± 1.1 | 768.7 ± 1.1
353.15 K, 100000 kPa | 825.7 ± 1 | 814 ± 1.1 | 801.5 ± 1.1 | 786.2 ± 1.1 | 774.8 ± 1.2
353.15 K, 110000 kPa | 830.4 ± 1.1 | 818.9 ± 1.1 | 806.7 ± 1.1 | 791.7 ± 1.2 | 780.5 ± 1.2
353.15 K, 120000 kPa | 834.9 ± 1.1 | 823.6 ± 1.1 | 811.6 ± 1.2 | 796.9 ± 1.2 | 786 ± 1.3
353.15 K, 130000 kPa | 839.1 ± 1.1 | 828 ± 1.2 | 816.3 ± 1.2 | 801.9 ± 1.3 | 791.1 ± 1.3
353.15 K, 140000 kPa | 843.2 ± 1.1 | 832.4 ± 1.2 | 820.8 ± 1.2 | 806.6 ± 1.3 | 796 ± 1.3
373.15 K, 100 kPa | 741.8 ± 5.4 | 723.3 ± 5.4 | 702.7 ± 5.4 | 676.5 ± 5.4 | 656.3 ± 5.4
373.15 K, 500 kPa | 742 ± 0.7 | 723.5 ± 0.7 | 703.1 ± 0.7 | 677 ± 0.7 | 657 ± 0.7
373.15 K, 1000 kPa | 742.6 ± 0.7 | 724.1 ± 0.7 | 703.9 ± 0.7 | 678 ± 0.7 | 658.1 ± 0.7
373.15 K, 2000 kPa | 743.8 ± 0.7 | 725.5 ± 0.7 | 705.4 ± 0.7 | 679.9 ± 0.7 | 660.3 ± 0.7
373.15 K, 5000 kPa | 747.1 ± 0.7 | 729.2 ± 0.7 | 709.9 ± 0.7 | 685.2 ± 0.7 | 666.5 ± 0.7
373.15 K, 10000 kPa | 752.4 ± 0.7 | 735.3 ± 0.7 | 716.7 ± 0.8 | 693.4 ± 0.8 | 675.7 ± 0.8
373.15 K, 15000 kPa | 757.3 ± 0.8 | 740.8 ± 0.8 | 723 ± 0.8 | 700.7 ± 0.8 | 683.8 ± 0.8
373.15 K, 20000 kPa | 761.9 ± 0.8 | 745.9 ± 0.8 | 728.8 ± 0.8 | 707.3 ± 0.8 | 691.2 ± 0.8
373.15 K, 30000 kPa | 770.5 ± 0.8 | 755.4 ± 0.8 | 739.1 ± 0.8 | 719.1 ± 0.8 | 704.1 ± 0.9
373.15 K, 40000 kPa | 778.2 ± 0.8 | 763.8 ± 0.9 | 748.4 ± 0.9 | 729.4 ± 0.9 | 715.3 ± 0.9
373.15 K, 50000 kPa | 785.2 ± 0.9 | 771.3 ± 0.9 | 756.6 ± 0.9 | 738.5 ± 0.9 | 725 ± 1
373.15 K, 60000 kPa | 791.8 ± 0.9 | 778.4 ± 0.9 | 764.2 ± 1 | 746.9 ± 1 | 733.9 ± 1
373.15 K, 70000 kPa | 797.9 ± 0.9 | 784.9 ± 1 | 771.3 ± 1 | 754.5 ± 1 | 742 ± 1.1
373.15 K, 80000 kPa | 803.8 ± 1 | 791.2 ± 1 | 778 ± 1 | 761.8 ± 1.1 | 749.5 ± 1.1
373.15 K, 90000 kPa | 809.2 ± 1 | 796.9 ± 1 | 784 ± 1.1 | 768.3 ± 1.1 | 756.4 ± 1.2
373.15 K, 100000 kPa | 814.3 ± 1.1 | 802.4 ± 1.1 | 789.8 ± 1.1 | 774.4 ± 1.2 | 762.8 ± 1.2
373.15 K, 110000 kPa | 819.4 ± 1.1 | 807.6 ± 1.1 | 795.3 ± 1.2 | 780.3 ± 1.2 | 769 ± 1.3
373.15 K, 120000 kPa | 824.2 ± 1.1 | 812.6 ± 1.2 | 800.6 ± 1.2 | 785.9 ± 1.3 | 774.7 ± 1.3
373.15 K, 130000 kPa | 828.6 ± 1.2 | 817.3 ± 1.2 | 805.5 ± 1.2 | 791.1 ± 1.3 | 780.2 ± 1.3
373.15 K, 140000 kPa | 833 ± 1.2 | 821.8 ± 1.2 | 810.2 ± 1.3 | 796.1 ± 1.3 | 785.3 ± 1.4
393.15 K, 500 kPa | 724.7 ± 0.7 | 705 ± 0.7 | 683.5 ± 0.7 | 655.7 ± 0.7 | 634.2 ± 0.7
393.15 K, 1000 kPa | 725.4 ± 0.7 | 705.7 ± 0.7 | 684.4 ± 0.7 | 656.8 ± 0.7 | 635.6 ± 0.7
393.15 K, 2000 kPa | 726.7 ± 0.7 | 707.3 ± 0.7 | 686.3 ± 0.7 | 659.1 ± 0.7 | 638.4 ± 0.7
393.15 K, 5000 kPa | 730.5 ± 0.7 | 711.7 ± 0.7 | 691.5 ± 0.7 | 665.6 ± 0.7 | 645.9 ± 0.8
393.15 K, 10000 kPa | 736.6 ± 0.7 | 718.7 ± 0.8 | 699.5 ± 0.8 | 675.3 ± 0.8 | 657 ± 0.8
393.15 K, 15000 kPa | 742.1 ± 0.8 | 724.9 ± 0.8 | 706.6 ± 0.8 | 683.6 ± 0.8 | 666.4 ± 0.8
393.15 K, 20000 kPa | 747.3 ± 0.8 | 730.7 ± 0.8 | 713.2 ± 0.8 | 691.2 ± 0.8 | 674.9 ± 0.8
393.15 K, 30000 kPa | 756.7 ± 0.8 | 741.1 ± 0.8 | 724.7 ± 0.8 | 704.4 ± 0.9 | 689.3 ± 0.9
393.15 K, 40000 kPa | 765.3 ± 0.9 | 750.4 ± 0.9 | 735 ± 0.9 | 715.8 ± 0.9 | 701.7 ± 0.9
393.15 K, 50000 kPa | 772.8 ± 0.9 | 758.6 ± 0.9 | 743.9 ± 0.9 | 725.7 ± 1 | 712.2 ± 1
393.15 K, 60000 kPa | 779.9 ± 0.9 | 766.4 ± 0.9 | 752.2 ± 1 | 734.8 ± 1 | 721.9 ± 1
393.15 K, 70000 kPa | 786.7 ± 1 | 773.5 ± 1 | 759.9 ± 1 | 743.1 ± 1.1 | 730.7 ± 1.1
393.15 K, 80000 kPa | 792.8 ± 1 | 779.9 ± 1 | 766.8 ± 1.1 | 750.5 ± 1.1 | 738.5 ± 1.1
393.15 K, 90000 kPa | 798.6 ± 1 | 786.1 ± 1.1 | 773.4 ± 1.1 | 757.6 ± 1.2 | 745.9 ± 1.2
393.15 K, 100000 kPa | 804.1 ± 1.1 | 791.8 ± 1.1 | 779.5 ± 1.2 | 764.1 ± 1.2 | 752.7 ± 1.2
393.15 K, 110000 kPa | 809.4 ± 1.1 | 797.5 ± 1.2 | 785.4 ± 1.2 | 770.3 ± 1.2 | 759.2 ± 1.3
393.15 K, 120000 kPa | 814.4 ± 1.2 | 802.7 ± 1.2 | 790.8 ± 1.2 | 776.1 ± 1.3 | 765.1 ± 1.3
393.15 K, 130000 kPa | 819.1 ± 1.2 | 807.6 ± 1.2 | 796 ± 1.3 | 781.5 ± 1.3 | 770.8 ± 1.4
393.15 K, 140000 kPa | 823.7 ± 1.2 | 812.4 ± 1.3 | 801 ± 1.3 | 786.8 ± 1.4 | 776.3 ± 1.4
